The values that follow come from patent publication US6084072A, “Purified lectin and methods of use” (The Regents of the University of Michigan, priority 1993, dated 2000).

“Also recorded” adds a separate entry of the source. Read-outs that look alike come from different tables or passages of the source.

In test [1] the target is T1, Artocarpus intergrifolia lectin (Artocarpus integer, UniProt P18670).
T1 construct: host or cells: Artocarpus integrifolia seeds
To be noted: cited from earlier work.

Test [2] concerns the target T2, amaranthin (Amaranthus caudatus, UniProt Q71QF2). Description: Hapten inhibition of amaranthin/asialo-ovine submaxillary mucin precipitation. Conditions: for Relative Inhibition potency ACA: N-Acetylgalactosamine = 1. It counts as binding. How it is done:
(§1) Precipitation assays were conducted in 1.5 ml centrifuge tubes by the method of So and Goldstein. Indicated amounts of glycoprotein were added to 80 μg of amaranthin, and the total volume was adjusted to 250 μl with phosphate buffered saline. The tubes were incubated at 37° C. and then kept at 4° C. for 2 days. The precipitates were centrifuged, washed with cold Phosphate buffered saline, dissolved in 0.05 N NaOH and analyzed for protein by the method of Lowery et al. using bovine serum albumin as the standard. Hapten inhibition assays were carried out using 80 μg of amaranthin, 5 μg of asialo-ovine submaxillary mucins, and the indicated sugar concentrations. Inhibition was determined relative to the amount of precipitate formed in the control with no sugar added. All precipitation assays were conducted in duplicate to bring the tolerance within ±5% and the amount of precipitate formed average.

In test [3] the target is T2, amaranthin. Description: Elution of amaranthin from Synsorb-T column. It counts as binding. An excerpt:
The unbound material was washed from the Synsorb-T beads with phosphate buffered saline (PBS), and the A. caudatus lectin was eluted with 0.1 N acetic acid, pH 3. The Synsorb-T beads are fine particles of diatomaceous earth, or sand material bonded to the disaccharide Galβ1,3GalNAcα-O--(CH2)8 CO. […] Thus, it was necessary to reapply the unbound material to the affinity column to obtain the remaining lectin.
Elution of amaranthin from the affinity columns with non-specific agents was employed due to the expense and limited availability of Galβ1,3GalNAc, the best binding ligand. GalNAc (0.5 M) was effective in displacing amaranthin from the Synsorb-T matrix. However, when amaranthin (0.9 mg) was applied to a small Synsorb-T column (0.58 ml), it was observed that 100 μM Galβ1,3GalNAcα-O-benzyl eluted the lectin.

The target of test [4] is T3, PNA (Arachis hypogaea, UniProt P02872).
T3 construct: purchased E.Y. Laboratories, San Mateo, Calif; (donated by Dr. A. Chu)
T3 sequence (P02872 24-273): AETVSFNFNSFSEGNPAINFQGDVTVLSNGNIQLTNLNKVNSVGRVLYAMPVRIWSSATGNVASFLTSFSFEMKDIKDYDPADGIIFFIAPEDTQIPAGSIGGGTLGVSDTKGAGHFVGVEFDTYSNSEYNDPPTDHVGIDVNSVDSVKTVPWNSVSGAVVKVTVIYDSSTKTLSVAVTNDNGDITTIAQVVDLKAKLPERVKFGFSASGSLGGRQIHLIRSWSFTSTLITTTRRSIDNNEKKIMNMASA
Description: Hapten inhibition of PNA/asialoglycophorin precipitation. It counts as binding. To be noted: for Relative Inhibition potency PNA: Galactose = 1, 40 μg PNA, 6 μg asialoglycophorin. How it is done:
(§2) Precipitation reactions with PNA were carried out similarly, except that 40 μg of PNA was used. Hapten inhibition studies with PNA used 40 μg of PNA, 6 μg of asialoglycophorin, and the indicated sugar concentrations.

Test [5] concerns the target T3, PNA. Conditions: reported by Lotan, Pereira; cited from earlier work.
Test [6] addresses T2, amaranthin. Description: Precipitation of amaranthin by glycoproteins and glycoconjugates, native or glycosidase treated. To be noted: for Precipitate formation with amarantin: Glycosidase: β-Galactosidase; for precipitation of amaranthin, in words: untreated glycoprotein or glycoconjugate, 80 μg amaranthin. It counts as binding. How it is done:
Glycosidase digestions, and in particular exo-β-galactosidase digestions were carried out for 9 hours at 37° C. in 0.1 M sodium citrate, pH 4.3 using 0.1 unit of enzyme/μmol of terminal galactosyl group. Endo-α-N-acetylgalactosaminidase treatment of asialo-ovine submaxillary mucin was done as described in Sadler, J. E., Rearick, J. L., Paulson, J. C., and Hill, R. L. (1979). GSC Exo-α-N-acetylgalactosaminidase digestion of asialo-ovine submaxillary mucin was carried out according to the recommendations of Genzyme of Boston, Mass. Glycoproteins were analyzed for carbohydrate composition, before and after glycosidase treatment, as described.
as §1

For test [7], the target named is T3, PNA. Description: Precipitation reactions with PNA. It counts as binding. How it is done: as §2
In test [8] the target is T3, PNA. To be noted: reported by Pereira; cited from earlier work.

T2 sequence (Q71QF2 entry or part of it): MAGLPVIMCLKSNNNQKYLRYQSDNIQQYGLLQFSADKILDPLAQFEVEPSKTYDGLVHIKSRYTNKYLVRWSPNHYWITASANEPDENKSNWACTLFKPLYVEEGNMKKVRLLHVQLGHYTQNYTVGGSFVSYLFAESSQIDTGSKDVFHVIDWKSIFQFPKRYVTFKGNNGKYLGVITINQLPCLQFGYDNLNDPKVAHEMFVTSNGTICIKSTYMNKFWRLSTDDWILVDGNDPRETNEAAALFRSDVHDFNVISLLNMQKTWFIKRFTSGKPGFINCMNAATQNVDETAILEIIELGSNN
T1 sequence (P18670 whole entry): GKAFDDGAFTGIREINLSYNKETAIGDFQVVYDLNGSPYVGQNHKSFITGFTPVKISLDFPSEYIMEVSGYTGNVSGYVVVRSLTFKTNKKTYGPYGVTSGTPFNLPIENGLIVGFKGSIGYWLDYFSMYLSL
T1 sequence (P18673 whole entry partner): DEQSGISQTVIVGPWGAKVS

For the compound `CC(=O)N[C@H]1C(O)O[C@H](CO)[C@H](O)[C@@H]1O[C@@H]1O[C@H](CO)[C@H](O)[C@H](O)[C@H]1O` (some centres unmarked) [Galβ1,3GalNAc], in test [1], the “times more potent than GalNAc” value was 37 and the “times more potent than galactose” value is listed as 100. Moreover, at amaranthin [2], half-maximal inhibition (IC50) required 3.4 µM and the “Relative Inhibition potency ACA” value was determined as 232.

`CC(=O)N[C@H]1[C@@H](OCc2ccccc2)O[C@H](CO)[C@H](O)[C@@H]1O[C@@H]1O[C@H](CO)[C@H](O)[C@H](O)[C@H]1O` [Galβ1,3GalNAcα-O-benzyl]: on amaranthin [3] (0.9 mg amaranthin on 0.58 ml Synsorb-T column), the “concentration that eluted the lectin” value worked out at 100 µM. Moreover, at PNA [4], the “Relative Inhibition potency PNA” value worked out at 50. Moreover, on amaranthin [2], the IC50 turned out to be 1.6 µM and the “Relative Inhibition potency ACA” value was determined as 494.

For `CO[C@@H]1O[C@H](CO)[C@H](O)[C@H](O[C@@H]2O[C@H](CO)[C@H](O)[C@H](O[C@@H]3O[C@H](CO)[C@H](O)[C@H](O)[C@H]3O)[C@H]2NC(C)=O)[C@H]1O` [Galβ1,3GalNAcβ1,3Galβ-O--CH3], the “Relative Inhibition potency PNA” value at PNA [4] worked out at 38. On amaranthin [2], the “inhibition of amaranthin/AOSM precipitation, in words” value was “poor inhibitor” and the “Relative Inhibition potency ACA” value is below 0.08.

On to `CO[C@H]1O[C@H](CO)[C@H](O)[C@H](O[C@@H]2O[C@H](CO)[C@H](O)[C@H](O)[C@H]2O)[C@H]1O` [Galβ1,3Galα-O-CH3], for which, on PNA [4], the “inhibition of PNA, in words” value is given as “rather good inhibitors” and the “Relative Inhibition potency PNA” value was 4.2. For the same compound, on amaranthin [2], the “inhibition of amaranthin/AOSM precipitation, in words” value was “very poor inhibitors” and the “Relative Inhibition potency ACA” value is on record as below 0.8.

As to `CC(=O)N[C@H]1C(O)O[C@H](CO)[C@@H](O[C@@H]2O[C@H](CO)[C@H](O)[C@H](O)[C@H]2O)[C@@H]1O` (some centres unmarked) [Galβ1,4GlcNAc], at PNA [5], the “inhibition of PNA, in words” value was “rather good inhibitors”. In addition, the “Relative Inhibition potency ACA” value on amaranthin [2] is reported as below 0.008.

In the case of `CC(=O)N[C@H]1[C@H](O[C@H]2[C@@H](O)[C@@H](CO)O[C@@H](O[C@H]3[C@@H](O)[C@@H](CO)O[C@H](OCc4ccccc4)[C@@H]3NC(C)=O)[C@@H]2O)O[C@H](CO)[C@@H](O)[C@@H]1O` [GlcNAcβ1,3Galβ1,3GalNAcα-O-benzyl], on PNA [4], the “Relative Inhibition potency PNA” value is listed as below 10. Moreover, at amaranthin [2], the IC50 was found to be 25 µM and the “Relative Inhibition potency ACA” value came out at 32. The “decrease of potency by a factor, against Galβ1,3GalNAcα-O-benzyl” value on amaranthin [2] (C'-3 substitution with GlcNAc) was found to be 10. In addition, on amaranthin [2] (amaranthin), the “fold lower reactivity compared with NeuAcα2,3Galβ1,3GalNAcα-O” value is listed as 10.

As for `CO[C@H]1O[C@H](CO)[C@H](O)[C@H](O)[C@H]1O` [Methyl α-galactoside], the “Relative Inhibition potency PNA” value at PNA [4] was 2.2. Moreover, the “Relative Inhibition potency ACA” value on amaranthin [2] was below 0.003.

As to `CO[C@@H]1O[C@H](CO)[C@H](O)[C@H](O)[C@H]1O` [Methyl β-galactoside], the “Relative Inhibition potency PNA” value on PNA [4] was 0.8. Further, the “Relative Inhibition potency ACA” value on amaranthin [2] is below 0.003.

Take `CC(=O)N[C@H]1C(O)O[C@H](CO)[C@H](O)[C@@H]1O` (some centres unmarked) [N-Acetylgalactosamine]: the “concentration effective in displacing amaranthin from the Synsorb-T matrix” value at amaranthin [3] was determined as 0.5 M. The “Relative Inhibition potency PNA” value on PNA [4] is below 0.4. Further, the IC50 at amaranthin [2] came out at 790 µM. Also, the “times less potent than Galβ1,3GalNAcα-O--R (α-linked T-antigen disaccharides)” value on amaranthin [2] (inhibitor of amaranthin) was 350. The “inhibition of amaranthin/AOSM precipitation, in words” value at amaranthin [2] (listed as GalNAc) is “only monosaccharide found to inhibit; also recorded: inhibited by GalNAc”.

With “Asialo-glycopeptide Mt: NH2-terminal 39 amino acids of asialoglycophorin with 12 Galβ1,3GalNAcα-O residues and one N-linked oligosaccharide (LSTTEVAMHTSTSSSVTKSYISSQTNDTHKRDTYAATPR; desialylated glycans; UniProt P02724 20-58, looked up, fragment)”, the “Precipitate formation with amarantin” value with amaranthin [6] is listed as “No”; in the test with amaranthin [6] (listed as asialo-glycopeptide Mt), “reactivity was eliminated; also recorded: no longer precipitates”. Besides, the “precipitation of amaranthin, in words” value in the test with amaranthin [6] is reported as “reacted strongly; also recorded: reacts very well with amaranthin”.

As for Asialofetuin: desialylated fetuin, the “precipitation of amaranthin, in words” value in the test with amaranthin [6] is on record as “precipitated a small amount of amaranthin; also recorded: weak precipitation reaction”.

Consider Galβ1,3GalNAcβ-O-BSA, for which the “precipitation of PNA, in words” value at PNA [7] is “react equally well”.

Regarding Galβ1,3[NeuAcα2,6]GalNAcα-O-BSA, on amaranthin [6], the “precipitation of amaranthin, in words” value is on record as “good precipitating agents; also recorded: can precipitate amaranthin”.

Consider Galβ,3GalNAcα-O-BSA, for which the “precipitation of PNA, in words” value on PNA [7] is given as “react equally well”. The “precipitation of amaranthin, in words” value on amaranthin [6] was “good precipitating agents”; at amaranthin [6] (listed as Galβ1,3GalNAcα-O-BSA), “can be precipitated by”.

Regarding NeuAcα2,3Galβ1,3GalNAcα-OBSA, on PNA [7], the “precipitation of PNA, in words” value is on record as “not precipitated”. Further, the “precipitation of amaranthin, in words” value on amaranthin [6] is recorded as “good precipitating agents”.

Turning to “asialo-α1 -acidglycoprotein: desialylated α1-acid glycoprotein”, the “precipitation of / reaction with PNA, in words” value with PNA [8] is “precipitated by”. Moreover, the “precipitation of amaranthin, in words” value with amaranthin [6] was “did not precipitate amaranthin”.

With bovine submaxillary mucin, at amaranthin [6], the “precipitation of amaranthin, in words” value is listed as “did not form precipitates”.

Take “fetuin: fetuin, three O-linked oligosaccharide chains per molecule”: the “precipitation of amaranthin, in words” value with amaranthin [6] is on record as “did not precipitate amaranthin; also recorded: does not precipitate fetuin”.

laminin: on amaranthin [6], the “precipitation of amaranthin, in words” value is given as “did not precipitate amaranthin”.
